Where a SMILES comes first, the peptide text is derived from it. The star is where a group is joined. Bz = O=C(c1ccccc1)*
Molecular target: T1, APC (303–739) (Homo sapiens, UniProt P25054)
T1 sequence (P25054 303-739): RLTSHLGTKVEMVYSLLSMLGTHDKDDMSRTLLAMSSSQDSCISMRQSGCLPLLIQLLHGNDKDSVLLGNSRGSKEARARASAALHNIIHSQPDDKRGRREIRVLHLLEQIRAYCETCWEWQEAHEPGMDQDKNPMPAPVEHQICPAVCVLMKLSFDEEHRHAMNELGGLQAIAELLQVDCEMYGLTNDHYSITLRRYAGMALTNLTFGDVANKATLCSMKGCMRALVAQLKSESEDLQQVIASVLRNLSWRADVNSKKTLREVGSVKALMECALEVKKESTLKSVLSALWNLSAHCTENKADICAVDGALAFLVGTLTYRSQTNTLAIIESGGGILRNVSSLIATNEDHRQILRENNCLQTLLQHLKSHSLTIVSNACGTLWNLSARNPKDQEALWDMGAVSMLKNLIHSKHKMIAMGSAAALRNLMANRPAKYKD
Test: FP competitive assay using tracer 7
Format: binding
Conditions: for IC50: Table 3 source data
Method in brief: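 Peptide dilutions were first incubated 1 h at room temperature with APC (303–739) in HEPES pH 7.5 buffer containing 300 mM NaCl, EDTA and DTT. Added FITC tracer 7 (400 nM stock) displaced over a further 1.5 h before polarization reading. IC50 values came from nonlinear regression fits of triplicate data.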

## CC(C)C[C@H](NC(=O)[C@H](CO)NC(=O)[C@H](CCC(=O)O)NC(=O)CNC(=O)[C@H](C)NC(=O)c1ccccc1)C(=O)N[C@@H](Cc1ccc(O)cc1)C(=O)N[C@@H](CCC(=O)O)C(N)=O [MAI-511] (Bz-AGESLYE-NH2)
Conc. 0.0002 μM, individual repeats, Fig3b
  inhibition at 0.0002 µM: 1.5%
Conc. 0.0005 μM, individual repeats, Fig3b
  inhibition at 0.0005 µM: 1.2%
Conc. 0.001 μM, individual repeats, Fig3b
  inhibition at 0.001 µM: 1.9%
Conc. 0.002 μM, individual repeats, Fig3b
  inhibition at 0.002 µM: 1.5%
Conc. 0.0024 μM, individual repeats, Fig3b
  inhibition at 0.0024 µM: 1.1%
Conc. 0.0039 μM, individual repeats, Fig3b
  inhibition at 0.0039 µM: 2.5%
Conc. 0.0049 μM, individual repeats, Fig3b
  inhibition at 0.0049 µM: 1.1%
Conc. 0.006 μM, individual repeats, Fig3b
  inhibition at 0.006 µM: 4.7%
Conc. 0.0078 μM, individual repeats, Fig3b
  inhibition at 0.0078 µM: 5.3%
Conc. 0.0098 μM, individual repeats, Fig3b
  inhibition at 0.0098 µM: 6.1%
Conc. 0.012 μM, individual repeats, Fig3b
  inhibition at 0.012 µM: 7.9%
Conc. 0.0156 μM, individual repeats, Fig3b
  inhibition at 0.0156 µM: 8.5%
Conc. 0.0195 μM, individual repeats, Fig3b
  inhibition at 0.0195 µM: 11.3%
Conc. 0.024 μM, individual repeats, Fig3b
  inhibition at 0.024 µM: 16.8%
Conc. 0.0313 μM, individual repeats, Fig3b
  inhibition at 0.0313 µM: 22.7%
Conc. 0.0391 μM, individual repeats, Fig3b
  inhibition at 0.0391 µM: 22.5%
Conc. 0.049 μM, individual repeats, Fig3b
  inhibition at 0.049 µM: 31.3%
Conc. 0.0625 μM, individual repeats, Fig3b
  inhibition at 0.0625 µM: 39%
Conc. 0.0781 μM, individual repeats, Fig3b
  inhibition at 0.0781 µM: 39.5%
Conc. 0.098 μM, individual repeats, Fig3b
  inhibition at 0.098 µM: 49%
Conc. 0.125 μM, individual repeats, Fig3b
  inhibition at 0.125 µM: 56.2%
Conc. 0.1563 μM, individual repeats, Fig3b
  inhibition at 0.1563 µM: 58.3%
Conc. 0.195 μM, individual repeats, Fig3b
  inhibition at 0.195 µM: 67.3%
Conc. 0.25 μM, individual repeats, Fig3b
  inhibition at 0.25 µM: 72.5%
Conc. 0.3125 μM, individual repeats, Fig3b
  inhibition at 0.3125 µM: 72.1%
Conc. 0.391 μM, individual repeats, Fig3b
  inhibition at 0.391 µM: 80.1%
Conc. 0.5 μM, individual repeats, Fig3b
  inhibition at 0.5 µM: 83.2%
Conc. 0.625 μM, individual repeats, Fig3b
  inhibition at 0.625 µM: 82.5%
Conc. 0.781 μM, individual repeats, Fig3b
  inhibition at 0.781 µM: 86.3%
Conc. 1 μM, individual repeats, Fig3b
  inhibition at 1 µM: 90.6%
Conc. 1.25 μM, individual repeats, Fig3b
  inhibition at 1.25 µM: 89.5%
Conc. 1.563 μM, individual repeats, Fig3b
  inhibition at 1.563 µM: 91.5%
Conc. 2 μM, individual repeats, Fig3b
  inhibition at 2 µM: 95.4%
Conc. 2.5 μM, individual repeats, Fig3b
  inhibition at 2.5 µM: 93.6%
Conc. 3.125 μM, individual repeats, Fig3b
  inhibition at 3.125 µM: 93.5%
Conc. 5 μM, individual repeats, Fig3b
  inhibition at 5 µM: 95.7%
Conc. 6.25 μM, individual repeats, Fig3b
  inhibition at 6.25 µM: 94.1%
Conc. 10 μM, individual repeats, Fig3b
  inhibition at 10 µM: 96.6%
Conc. 12.5 μM, individual repeats, Fig3b
  inhibition at 12.5 µM: 95%
Conc. 20 μM, individual repeats, Fig3b
  inhibition at 20 µM: 97.1%
Conc. 25 μM, individual repeats, Fig3b
  inhibition at 25 µM: 95.6%
Conc. 50 μM, individual repeats, Fig3b
  inhibition at 50 µM: 94.9%
IC50(μM) Repeat 1, Repeat 1
  IC50: 0.0848 µM
IC50(μM) Repeat 2, Repeat 2
  IC50: 0.102 µM
IC50(μM) Repeat 3, Repeat 3
  IC50: 0.108 µM
IC50(μM) mean, mean of 3 repeats
  IC50: 0.0984 µM
Repeat 1, Conc. 0.0024 μM
  mean (FP signal, FigS5): 300.7
Repeat 1, Conc. 0.0049 μM
  mean (FP signal, FigS5): 300.5
Repeat 1, Conc. 0.0098 μM
  mean (FP signal, FigS5): 288
Repeat 1, Conc. 0.0195 μM
  mean (FP signal, FigS5): 274.7
Repeat 1, Conc. 0.0391 μM
  mean (FP signal, FigS5): 246.3
Repeat 1, Conc. 0.0781 μM
  mean (FP signal, FigS5): 203.3
Repeat 1, Conc. 0.1563 μM
  mean (FP signal, FigS5): 155.7
Repeat 1, Conc. 0.3125 μM
  mean (FP signal, FigS5): 120.7
Repeat 1, Conc. 0.625 μM
  mean (FP signal, FigS5): 94.3
Repeat 1, Conc. 1.25 μM
  mean (FP signal, FigS5): 76.7
Repeat 1, Conc. 2.5 μM
  mean (FP signal, FigS5): 66.3
Repeat 1, Conc. 5 μM
  mean (FP signal, FigS5): 61
Repeat 1, Conc. 10 μM
  mean (FP signal, FigS5): 58.7
Repeat 1, Conc. 20 μM
  mean (FP signal, FigS5): 57.3
Repeat 2, Conc. 0.0002 μM
  mean (FP signal, FigS5): 300.7
Repeat 2, Conc. 0.0005 μM
  mean (FP signal, FigS5): 301.3
Repeat 2, Conc. 0.001 μM
  mean (FP signal, FigS5): 299.7
Repeat 2, Conc. 0.002 μM
  mean (FP signal, FigS5): 300.7
Repeat 2, Conc. 0.0039 μM
  mean (FP signal, FigS5): 298
Repeat 2, Conc. 0.0078 μM
  mean (FP signal, FigS5): 291
Repeat 2, Conc. 0.0156 μM
  mean (FP signal, FigS5): 283
Repeat 2, Conc. 0.0313 μM
  mean (FP signal, FigS5): 247.3
Repeat 2, Conc. 0.0625 μM
  mean (FP signal, FigS5): 206.3
Repeat 2, Conc. 0.125 μM
  mean (FP signal, FigS5): 163
Repeat 2, Conc. 0.25 μM
  mean (FP signal, FigS5): 122
Repeat 2, Conc. 0.5 μM
  mean (FP signal, FigS5): 95.3
Repeat 2, Conc. 1 μM
  mean (FP signal, FigS5): 76.7
Repeat 2, Conc. 2 μM
  mean (FP signal, FigS5): 64.7
Repeat 3, Conc. 0.006 μM
  mean (FP signal, FigS5): 301.3
Repeat 3, Conc. 0.012 μM
  mean (FP signal, FigS5): 293
Repeat 3, Conc. 0.024 μM
  mean (FP signal, FigS5): 270
Repeat 3, Conc. 0.049 μM
  mean (FP signal, FigS5): 232.3
Repeat 3, Conc. 0.098 μM
  mean (FP signal, FigS5): 186.3
Repeat 3, Conc. 0.195 μM
  mean (FP signal, FigS5): 138.7
Repeat 3, Conc. 0.391 μM
  mean (FP signal, FigS5): 105.3
Repeat 3, Conc. 0.781 μM
  mean (FP signal, FigS5): 89.3
Repeat 3, Conc. 1.563 μM
  mean (FP signal, FigS5): 75.7
Repeat 3, Conc. 3.125 μM
  mean (FP signal, FigS5): 70.7
Repeat 3, Conc. 6.25 μM
  mean (FP signal, FigS5): 69
Repeat 3, Conc. 12.5 μM
  mean (FP signal, FigS5): 66.7
Repeat 3, Conc. 25 μM
  mean (FP signal, FigS5): 65
Repeat 3, Conc. 50 μM
  mean (FP signal, FigS5): 67

Reference: article PMC9402538, “Rational design of a sensitivity-enhanced tracer for discovering efficient APC–Asef inhibitors” (Nature Communications, 2022)
